PubChem BioAssay AID248 (DTP/NCI, 2004)
Inconclusive results and toxic doses are left out. No stated cut-off is given here; in the data, active means T/C of 150% or more; inactive means T/C below 125%.

Test system: L1210 leukemia ip in BDF1 mice, survival T/C
Assay: NCI In Vivo Anticancer Drug Screen. Data for tumor model L1210 Leukemia (intraperitoneal) in B6D2F1 (BDF1) mice
Settings: endpoint: mean survival time, higher = longer survival
Method in brief: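 Antitumor effect is assessed in tumor-bearing animals. Survival in the compound arm is compared with a vehicle-dosed control arm and expressed as their quotient.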

[1] = dose: 100.0 mg/kg/injection, schedule: Q04DX003 (ip), vehicle: Klucel (hydroxypropylcellulose) (HPC)
[2] = dose: 200.0 mg/kg/injection, schedule: Q04DX003 (ip), vehicle: Klucel (hydroxypropylcellulose) (HPC)
[3] = dose: 100.0 mg/kg/injection, schedule: Q01DX001 (ip), vehicle: carboxymethylcellulose (CMC)
[4] = dose: 200.0 mg/kg/injection, schedule: Q01DX001 (ip), vehicle: carboxymethylcellulose (CMC)
[5] = dose: 400.0 mg/kg/injection, schedule: Q01DX001 (ip), vehicle: carboxymethylcellulose (CMC)
[6] = dose: 100.0 mg/kg/injection, schedule: Q01DX009 (ip), vehicle: saline with Tween-80
[7] = dose: 200.0 mg/kg/injection, schedule: Q01DX009 (ip), vehicle: saline with Tween-80
[8] = dose: 400.0 mg/kg/injection, schedule: Q01DX009 (ip), vehicle: saline with Tween-80
[9] = dose: 100.0 mg/kg/injection, schedule: Q01DX009 (ip), vehicle: saline
[10] = dose: 200.0 mg/kg/injection, schedule: Q01DX009 (ip), vehicle: saline
[11] = dose: 100.0 mg/kg/injection, schedule: Q01DX009 (ip), vehicle: Klucel (hydroxypropylcellulose) (HPC)
[12] = dose: 200.0 mg/kg/injection, schedule: Q01DX009 (ip), vehicle: Klucel (hydroxypropylcellulose) (HPC)
[13] = dose: 100.0 mg/kg/injection, schedule: Q01DX001 (ip), vehicle: saline
[14] = dose: 200.0 mg/kg/injection, schedule: Q01DX001 (ip), vehicle: saline
[15] = dose: 400.0 mg/kg/injection, schedule: Q01DX001 (ip), vehicle: saline
[16] = dose: 400.0 mg/kg/injection, schedule: Q04DX003 (ip), vehicle: saline with Tween-80

Measured: T/C

CC(=O)OCC1OC(N2C(=O)/C(=C/c3cccnc3)SC2=S)C(OC(C)=O)C(OC(C)=O)C1OC(C)=O (stereo unspecified)
inactive: dose: 25.0 mg/kg/injection, schedule: Q01DX005 (ip), vehicle: other 94 % of control | dose: 50.0 mg/kg/injection, schedule: Q01DX005 (ip), vehicle: other 96 % of control | dose: 100.0 mg/kg/injection, schedule: Q01DX005 (ip), vehicle: other 96 % of control | dose: 200.0 mg/kg/injection, schedule: Q01DX005 (ip), vehicle: other 105 % of control

Cc1ccccc1CN1CCN(CCOC(c2ccccc2)c2ccccc2Cl)CC1 (stereo unspecified)
inactive: dose: 12.5 mg/kg/injection, schedule: Q01DX009 (ip), vehicle: Klucel (hydroxypropylcellulose) (HPC) 97 % of control | dose: 25.0 mg/kg/injection, schedule: Q01DX009 (ip), vehicle: Klucel (hydroxypropylcellulose) (HPC) 97 % of control | dose: 25.0 mg/kg/injection, schedule: Q04DX003 (ip), vehicle: Klucel (hydroxypropylcellulose) (HPC) 107 % of control | dose: 50.0 mg/kg/injection, schedule: Q01DX009 (ip), vehicle: Klucel (hydroxypropylcellulose) (HPC) 102 % of control | dose: 50.0 mg/kg/injection, schedule: Q04DX003 (ip), vehicle: Klucel (hydroxypropylcellulose) (HPC) 100 % of control | [1] 105 % of control | [2] 100 % of control

COC(=O)c1cccc(-c2cccc(C(=O)OC)c2)c1
inactive: [3] 96 % of control | [4] 96 % of control | [5] 100 % of control

CCOC(=O)C1C2CCC/C(=N\NS(=O)(=O)c3ccc(C)cc3)C21 (stereo unspecified)
inactive: dose: 100.0 mg/kg/injection, schedule: Q04DX002 (ip), vehicle: Klucel (hydroxypropylcellulose) (HPC) 104 % of control | dose: 200.0 mg/kg/injection, schedule: Q04DX002 (ip), vehicle: Klucel (hydroxypropylcellulose) (HPC) 100 % of control | dose: 400.0 mg/kg/injection, schedule: Q04DX002 (ip), vehicle: Klucel (hydroxypropylcellulose) (HPC) 96 % of control

O=CC1=C(Cl)c2ccccc2CC1
inactive: dose: 12.5 mg/kg/injection, schedule: Q04DX003 (ip), vehicle: acetone 98 % of control

CCOC(=O)c1ccc2ccccc2c1
inactive: [6] 94 % of control | [7] 97 % of control | [8] 89 % of control

CCCC(SCC(=O)O)SCC(=O)O
inactive: [9] 93 % of control | dose: 100.0 mg/kg/injection, schedule: Q04DX002 (ip), vehicle: saline 97 % of control | [10] 100 % of control | dose: 200.0 mg/kg/injection, schedule: Q04DX002 (ip), vehicle: saline 100 % of control | dose: 400.0 mg/kg/injection, schedule: Q04DX002 (ip), vehicle: saline 95 % of control

CCCCC1C2CCCCC2CC2CCCCC21 (stereo unspecified)
inactive: dose: 100.0 mg/kg/injection, schedule: Q01DX001 (ip), vehicle: saline with Tween-80 98 % of control | dose: 200.0 mg/kg/injection, schedule: Q01DX001 (ip), vehicle: saline with Tween-80 101 % of control | dose: 400.0 mg/kg/injection, schedule: Q01DX001 (ip), vehicle: saline with Tween-80 98 % of control

CCOC(=O)C(c1cccc(OC)c1)C1(C(=O)OCC)CC2(CCC1=O)OCCO2 (stereo unspecified)
inactive: [11] 93 % of control | [12] 95 % of control | dose: 400.0 mg/kg/injection, schedule: Q01DX009 (ip), vehicle: Klucel (hydroxypropylcellulose) (HPC) 88 % of control

CN(C)c1ccc(/C=C2\C=Cc3ccccc32)cc1F
inactive: [3] 92 % of control | [6] 100 % of control | [4] 95 % of control | [7] 94 % of control | [5] 97 % of control | [8] 98 % of control

CCOC(=O)/C(C#N)=C1\CCc2cc(OC)ccc21
inactive: [13] 96 % of control | dose: 100.0 mg/kg/injection, schedule: Q01DX009 (ip), vehicle: other 103 % of control | [14] 90 % of control | dose: 200.0 mg/kg/injection, schedule: Q01DX009 (ip), vehicle: other 99 % of control | [15] 92 % of control | dose: 400.0 mg/kg/injection, schedule: Q01DX009 (ip), vehicle: other 97 % of control

CCOC(CNC(=O)c1cccc(S(=O)(=O)F)c1)OCC
inactive: dose: 100.0 mg/kg/injection, schedule: Q04DX003 (ip), vehicle: saline + alcohol 98 % of control | dose: 200.0 mg/kg/injection, schedule: Q04DX003 (ip), vehicle: saline + alcohol 96 % of control

CCCCCCCCCCCCC/C=C/CC(CC(=O)O)C(=O)Nc1ccc(-n2c(=O)cc(C)n2C)cc1 (stereo unspecified)
inactive: dose: 100.0 mg/kg/injection, schedule: Q04DX003 (ip), vehicle: saline with Tween-80 92 % of control | dose: 200.0 mg/kg/injection, schedule: Q04DX003 (ip), vehicle: saline with Tween-80 94 % of control | [16] 92 % of control

CC1CN=C(c2ccc(NC(=O)Nc3ccc(C4=NCCN4)cc3)cc2)N1 (stereo unspecified)
inactive: dose: 1.88 mg/kg/injection, schedule: Q01DX Z (ip), vehicle: saline 112 % of control | dose: 3.75 mg/kg/injection, schedule: Q01DX Z (ip), vehicle: saline 113 % of control

Cc1cc(C)cc(OC(=O)Nc2ccccc2C)c1
inactive: dose: 100.0 mg/kg/injection, schedule: Q04DX002 (ip), vehicle: saline with Tween-80 106 % of control | dose: 200.0 mg/kg/injection, schedule: Q04DX002 (ip), vehicle: saline with Tween-80 91 % of control

NNC(=O)CCO
inactive: [13] 103 % of control | [9] 89 % of control | [14] 105 % of control | [10] 100 % of control | [15] 94 % of control | dose: 400.0 mg/kg/injection, schedule: Q01DX009 (ip), vehicle: saline 96 % of control

CC[N+](C)(CC)CCCOC(=O)c1ccccc1Oc1ccc(C)cc1
inactive: dose: 100.0 mg/kg/injection, schedule: Q04DX003 (ip), vehicle: saline 104 % of control | dose: 200.0 mg/kg/injection, schedule: Q04DX003 (ip), vehicle: saline 93 % of control

Nc1nc2c(ncn2C(/C=N/Nc2ccccc2)OC(/C=N/Nc2ccccc2)CO)c(=O)[nH]1 (stereo unspecified)
inactive: dose: 100.0 mg/kg/injection, schedule: Q01DX001 (ip), vehicle: other 98 % of control | dose: 200.0 mg/kg/injection, schedule: Q01DX001 (ip), vehicle: other 106 % of control | dose: 400.0 mg/kg/injection, schedule: Q01DX001 (ip), vehicle: other 108 % of control

CCC(Cl)COP(=O)(OCC(Cl)CC)C(c1ccc(Cl)c(Cl)c1)P(=O)(OCC(Cl)CC)OCC(Cl)CC (stereo unspecified)
inactive: [1] 101 % of control | [2] 98 % of control | dose: 400.0 mg/kg/injection, schedule: Q04DX003 (ip), vehicle: Klucel (hydroxypropylcellulose) (HPC) 96 % of control

O=C(COc1cccc(Cl)c1Cl)NCc1ccc(Cl)cc1
inactive: [6] 100 % of control | [7] 97 % of control | [8] 96 % of control

COc1ccc(C(CC(=O)c2ccccc2)CC(=O)c2ccccc2)cc1
inactive: [16] 87 % of control

O=C(Cl)OCC(Cl)(Cl)Cl
inactive: dose: 100.0 mg/kg/injection, schedule: Q01DX001 (ip), vehicle: Klucel (hydroxypropylcellulose) (HPC) 100 % of control | [11] 100 % of control | dose: 200.0 mg/kg/injection, schedule: Q01DX001 (ip), vehicle: Klucel (hydroxypropylcellulose) (HPC) 100 % of control | [12] 96 % of control | dose: 400.0 mg/kg/injection, schedule: Q01DX001 (ip), vehicle: Klucel (hydroxypropylcellulose) (HPC) 100 % of control
